This test concerns Cell Necrosis. Description: Cell necrosis assay / cell viability assay (necrosis inhibitor activity). It is filed as cell-based. Particulars: necrosis inhibitor activity, read-out: EC50.
Setting [1] is: EC data for 14-191 extrapolated.

Where two headings read alike, the source gives them in different places.

For orientation: EC50 means the midpoint of the concentration-response curve. Consider `O=C(N1CC(=Cc2ccc(F)cc2Cl)C1)N1N=CC[C@H]1c1cc(F)cc(F)c1` [Compound 312, (S)-(3-(2-chloro-4-fluorobenzylidene)azetidin-1-yl)(5-(3,5-difluorophenyl)-4,5-dihydro-1H-pyrazol-1-yl)methanone], for which the EC50 (compounds outside 14-191) was in the range of 0.001 to 1 µM.

For the molecule `N#Cc1ccc(F)c(O[C@@H]2CCN(C(=O)N3N=CC[C@H]3c3cc(F)cc(F)c3)C2)c1` [Compound 341, 3-(((R)-1-((S)-5-(3,5-difluorophenyl)-4,5-dihydro-1H-pyrazole-1-carbonyl)pyrrolidin-3-yl)oxy)-4-fluorobenzonitrile], the EC50 (compounds outside 14-191) was 0.001 to 1 µM.

`C[C@@H]1CN(c2ncc(F)cn2)CCN1C(=O)N1N=CCC1c1ccccc1` (stereo partly drawn) [Compound 114B, ((R)-4-(5-fluoropyrimidin-2-yl)-2-methylpiperazin-1-yl)(5-phenyl-4,5-dihydro-1H-pyrazol-1-yl)methanone]: the EC50 under setting [1] was 1 to 10 µM.

Regarding `O=C(N1CC(=Cc2ccccc2)C1)N1N=CCC1c1ccccc1` (stereo not shown) [Compound 36, (3-benzylideneazetidin-1-yl)(5-phenyl-4,5-dihydro-1H-pyrazol-1-yl)methanone], under setting [1], the EC50 is 0.001 to 1 µM.

With `O=C(N1CC(Oc2ccc3cc[nH]c3c2)C1)N1N=CCC1c1cc(F)cc(F)c1` (stereo not shown) [Compound 177], the EC50 under setting [1] is 0.001 to 1 µM.

As to `CC(=O)Nc1ccnc(N2CCN(C(=O)N3N=CC[C@H]3c3cc(F)cc(F)c3)CC2)n1` [Compound 225], the EC50 (compounds outside 14-191) is 0.001 to 1 µM.

Consider `CNC(=O)c1c(F)cc(OC2CN(C(=O)N3N=CCC3c3cc(F)cc(F)c3)C2)cc1F` (stereo not shown) [Compound 160], for which the EC50 under setting [1] was 0.001 to 1 µM.

Consider `O=C(N1CC(Oc2ccc(F)cn2)C1)N1N=CCC1c1ccccc1` (stereo not shown) [Compound 72, (3-((5-fluoropyridin-2-yl)oxy)azetidin-1-yl)(5-phenyl-4,5-dihydro-1H-pyrazol-1-yl)methanone], for which the 50% effective concentration (EC50) under setting [1] was 0.001 to 1 µM.

As to `NC(=O)c1cc(OC2CN(C(=O)N3N=CC[C@H]3c3cc(F)cc(F)c3)C2)c(F)cc1F` [Compound 239, (S)-5-((1-(5-(3,5-difluorophenyl)-4,5-dihydro-1H-pyrazole-1-carbonyl)azetidin-3-yl)oxy)-2,4-difluorobenzamide], the EC50 (compounds outside 14-191) is 0.001 to 1 µM.

On to `CC1Oc2ccc(OC3CN(C(=O)N4N=CC[C@H]4c4cc(F)cc(F)c4)C3)cc2NC1=O` (stereo partly drawn) [Compound 349, 6-((1-((S)-5-(3,5-difluorophenyl)-4,5-dihydro-1H-pyrazole-1-carbonyl)azetidin-3-yl)oxy)-2-methyl-2H-benzo[b][1,4]oxazin-3(4H)-one], for which the EC50 (compounds outside 14-191) lay within 0.001 to 1 µM.

Turning to `O=C(N1CCN(c2ccncn2)CC1)N1N=CCC1c1ccccc1` (stereo not shown) [Compound 90, (5-phenyl-4,5-dihydro-1H-pyrazol-1-yl)(4-(pyrimidin-4-yl)piperazin-1-yl)methanone], the half-maximal effective concentration (EC50) under setting [1] was 1 to 10 µM.

Turning to `Nc1ccnc(N2CCN(C(=O)N3N=CCC3c3ccccc3)CC2)n1` (stereo not shown) [Compound 102, (4-(4-aminopyrimidin-2-yl)piperazin-1-yl)(5-phenyl-4,5-dihydro-1H-pyrazol-1-yl)methanone], under setting [1], the concentration giving a half-maximal response (EC50) is 1 to 10 µM.

Regarding `N#Cc1cnc(N2CCN(C(=O)N3N=CC[C@H]3c3cc(F)cc(F)c3)CC2)nc1` [Compound 385, (S)-2-(4-(5-(3,5-difluorophenyl)-4,5-dihydro-1H-pyrazole-1-carbonyl)piperazin-1-yl)pyrimidine-5-carbonitrile], under “compounds outside 14-191”, the 50% effective concentration (EC50) is 0.001 to 1 µM.

`O=C1COc2cc(F)c(OC3CN(C(=O)N4N=CC[C@H]4c4cccc(F)c4)C3)cc2N1` [Compound 200, (S)-7-fluoro-6-((1-(5-(3-fluorophenyl)-4,5-dihydro-1H-pyrazole-1-carbonyl)azetidin-3-yl)oxy)-2H-benzo[b][1,4]oxazin-3(4H)-one]: the half-maximal effective concentration (EC50) (compounds outside 14-191) was 0.001 to 1 µM.

Consider `O=C(N1CC(=Cc2cc3[nH]nc(Cl)c3cc2F)C1)N1N=CC[C@H]1c1cc(F)cc(F)c1` [Compound 285, (S)-(3-((3-chloro-5-fluoro-1H-indazol-6-yl)methylene)azetidin-1-yl)(5-(3,5-difluorophenyl)-4,5-dihydro-1H-pyrazol-1-yl)methanone], for which, under “compounds outside 14-191”, the concentration for a half-maximal effect (EC50) was in the range of 0.001 to 1 µM.

For the molecule `O=C(NC1CCC1)N1N=CCC1c1ccccc1` (stereo not shown) [Compound 2, N-cyclobutyl-5-phenyl-4,5-dihydro-1H-pyrazole-1-carboxamide], the EC50 (compounds outside 14-191) was in the range of 0.001 to 1 µM.

`O=C1COc2cc(F)c(OC3CN(C(=O)N4N=CC[C@H]4c4cncc(F)c4)C3)cc2N1` [Compound 194, (S)-7-fluoro-6-((1-(5-(5-fluoropyridin-3-yl)-4,5-dihydro-1H-pyrazole-1-carbonyl)azetidin-3-yl)oxy)-2H-benzo[b][1,4]oxazin-3(4H)-one]: where the note is “compounds outside 14-191”, the concentration for a half-maximal effect (EC50) lay within 0.001 to 1 µM.

For the molecule `C[C@H]1CN(c2ncccn2)CCN1C(=O)N1N=CCC1c1ccccc1` (stereo in doubt) [Compound 112A, (S)-(2-methyl-4-(pyrimidin-2-yl)piperazin-1-yl)(5-phenyl-4,5-dihydro-1H-pyrazol-1-yl)methanone], under setting [1], the half-maximal effective concentration (EC50) is 0.001 to 1 µM.

Consider `C[C@H]1CN(c2ncc(F)cn2)CCN1C(=O)N1N=CC[C@H]1c1cc(F)cc(F)c1` [Compound 118A, ((S)-5-(3,5-difluorophenyl)-4,5-dihydro-1H-pyrazol-1-yl)((S)-4-(5-fluoropyrimidin-2-yl)-2-methylpiperazin-1-yl)methanone], for which the EC50 under setting [1] was 0.001 to 1 µM.

With `N#Cc1csc(OC2CN(C(=O)N3N=CCC3c3cncc(F)c3)C2)n1` (stereo not shown) [Compound 281, 2-((1-(5-(5-fluoropyridin-3-yl)-4,5-dihydro-1H-pyrazole-1-carbonyl)azetidin-3-yl)oxy)thiazole-4-carbonitrile], the 50% effective concentration (EC50) (compounds outside 14-191) was 0.001 to 1 µM.

Consider `C[C@H]1CN(c2ncc(F)cn2)CCN1C(=O)N1N=CC[C@@H]1c1cccc(F)c1` [Compound 117B, ((R)-5-(3-fluorophenyl)-4,5-dihydro-1H-pyrazol-1-yl)((S)-4-(5-fluoropyrimidin-2-yl)-2-methylpiperazin-1-yl)methanone], for which, under setting [1], the concentration giving a half-maximal response (EC50) was 0.001 to 1 µM.

Take `O=C(N1CC(=Cc2ccc3c(c2)NC(=O)C3(F)F)C1)N1N=CC[C@H]1c1cc(F)cc(F)c1` [Compound 283, (S)-6-((1-(5-(3,5-difluorophenyl)-4,5-dihydro-1H-pyrazole-1-carbonyl)azetidin-3-ylidene)methyl)-3,3-difluoroindolin-2-one]: the EC50 (compounds outside 14-191) lay in the range of 0.001 to 1 µM.

In the case of `Cc1ccccc1CC1CN(C(=O)N2N=CCC2c2ccccc2)C1` (stereo not shown) [Compound 37, (3-(2-methylbenzyl)azetidin-1-yl)(5-phenyl-4,5-dihydro-1H-pyrazol-1-yl) methanone], the concentration for a half-maximal effect (EC50) under setting [1] is 0.001 to 1 µM.

As for `Cc1cnc(OC2CN(C(=O)N3N=CCC3c3cc(F)cc(F)c3)C2)s1` (stereo not shown) [Compound 176], the 50% effective concentration (EC50) under setting [1] was 0.001 to 1 µM.

Turning to `O=C(N1CC(Oc2ccc(F)cc2)C1)N1N=CC[C@H]1c1cc(F)cc(F)c1` [Compound 143], under setting [1], the concentration giving a half-maximal response (EC50) is 0.001 to 1 µM.

Regarding `O=C(N1CC/C(=C/c2ccccc2)C1)N1N=CCC1c1ccccc1` (stereo not shown) [Compound 58, (Z)-(3-benzylidenepyrrolidin-1-yl)(5-phenyl-4,5-dihydro-1H-pyrazol-1-yl)methanone], under setting [1], the EC50 is 0.001 to 1 µM.

On to `COc1cccc(O[C@@H]2CCN(C(=O)N3N=CC[C@H]3c3cc(F)cc(F)c3)C2)n1` [Compound 356, ((S)-5-(3,5-difluorophenyl)-4,5-dihydro-1H-pyrazol-1-yl)((R)-3-((6-methoxypyridin-2-yl)oxy)pyrrolidin-1-yl)methanone], for which the EC50 (compounds outside 14-191) was in the range of 0.001 to 1 µM.

As to `O=C(N1CC(Oc2ccccc2Cl)C1)N1N=CCC1c1ccccc1` (stereo not shown) [Compound 64, (3-(2-chlorophenoxy)azetidin-1-yl)(5-phenyl-4,5-dihydro-1H-pyrazol-1-yl)methanone], the half-maximal effective concentration (EC50) under setting [1] is 0.001 to 1 µM.

As to `O=C(N1CC(=Cc2c(F)cccc2F)C1)N1N=CCC1c1cc(F)cc(F)c1` (stereo not shown) [Compound 133, (3-(2,6-difluorobenzylidene)azetidin-1-yl)(5-(3,5-difluorophenyl)-4,5-dihydro-1H-pyrazol-1-yl)methanone], the 50% effective concentration (EC50) under setting [1] is 0.001 to 1 µM.

Consider `N#Cc1ccc(O[C@@H]2CCN(C(=O)N3N=CC[C@H]3c3cc(F)cc(F)c3)C2)c(Cl)n1` [Compound 365, 6-chloro-5-(((R)-1-((S)-5-(3,5-difluorophenyl)-4,5-dihydro-1H-pyrazole-1-carbonyl)pyrrolidin-3-yl)oxy)picolinonitrile], for which the EC50 (compounds outside 14-191) fell in the range of 0.001 to 1 µM.

Regarding `O=C(NC1CCN(c2ccccc2)C1)N1N=CCC1c1ccccc1` (stereo not shown) [Compound 24, 5-phenyl-N-(1-phenylpyrrolidin-3-yl)-4,5-dihydro-1H-pyrazole-1-carboxamide], the EC50 under setting [1] is 0.001 to 1 µM.

As for `Cc1n[nH]c2cc(C=C3CN(C(=O)N4N=CC[C@H]4c4cc(F)cc(F)c4)C3)ccc12` [Compound 289, (S)-(5-(3,5-difluorophenyl)-4,5-dihydro-1H-pyrazol-1-yl)(3-((3-methyl-1H-indazol-6-yl)methylene)azetidin-1-yl)methanone], the concentration giving a half-maximal response (EC50) (compounds outside 14-191) was in the range of 0.001 to 1 µM.

Take `O=C(N1CC(=Cc2ccccc2F)C1)N1N=CCC1c1cc(F)cc(F)c1` (stereo not shown) [Compound 56, (5-(3,5-difluorophenyl)-4,5-dihydro-1H-pyrazol-1-yl)(3-(2-fluorobenzylidene)azetidin-1-yl)methanone]: the 50% effective concentration (EC50) under setting [1] is 0.001 to 1 µM.

Regarding `O=C(N1CC(=Cc2ccn3nccc3c2)C1)N1N=CC[C@H]1c1cc(F)cc(F)c1` [Compound 288, (S)-(5-(3,5-difluorophenyl)-4,5-dihydro-1H-pyrazol-1-yl)(3-(pyrazolo[1,5-a]pyridin-5-ylmethylene)azetidin-1-yl)methanone], the concentration for a half-maximal effect (EC50) (compounds outside 14-191) was 0.001 to 1 µM.

`Nc1cccc(OC2CN(C(=O)N3N=CCC3c3cc(F)cc(F)c3)C2)c1` (stereo not shown) [Compound 229, (3-(3-aminophenoxy)azetidin-1-yl)(5-(3,5-difluorophenyl)-4,5-dihydro-1H-pyrazol-1-yl)methanone]: the EC50 (compounds outside 14-191) lay within 0.001 to 1 µM.

With `N#Cc1csc(OC2CN(C(=O)N3N=CCC3c3cc(F)cc(F)c3)C2)n1` (stereo not shown) [Compound 131, 2-((1-(5-(3,5-difluorophenyl)-4,5-dihydro-1H-pyrazole-1-carbonyl)azetidin-3-yl)oxy)thiazole-4-carbonitrile], the EC50 under setting [1] was 0.001 to 1 µM.

Take `Nc1ccn(CC2CN(C(=O)N3N=CC[C@H]3c3cc(F)cc(F)c3)C2)c1` [Compound 298, (S)-(3-((3-amino-H-pyrrol-1-yl)methyl)azetidin-1-yl)(5-(3,5-difluorophenyl)-4,5-dihydro-1H-pyrazol-1-yl)methanone]: the EC50 (compounds outside 14-191) was in the range of 0.001 to 1 µM.

Values taken from patent publication US12662469B2 (SIRONAX LTD, priority 2018, dated 2026).
